From PubChem BioAssay (NCI)
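GI50 marks 50% less growth. TGI is the concentration that stops growth completely.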

Experiments:
Assay in all cases: NCI-60 cell line screen, 384-well format
A498 renal = tested on: A498 renal
A549 NSCLC = tested on: A549 NSCLC
ACHN renal = tested on: ACHN renal
BT-549 breast = tested on: BT-549 breast
CAKI-1 renal = tested on: CAKI-1 renal
COLO 205 colon = tested on: COLO 205 colon
DU-145 prostate = tested on: DU-145 prostate
EKVX NSCLC = tested on: EKVX NSCLC
HCC-2998 colon = tested on: HCC-2998 colon
HCT-116 colon = tested on: HCT-116 colon
HCT-15 colon = tested on: HCT-15 colon
HL-60(TB) leukemia = tested on: HL-60(TB) leukemia
HOP-62 NSCLC = tested on: HOP-62 NSCLC
HOP-92 NSCLC = tested on: HOP-92 NSCLC
HS 578T breast = tested on: HS 578T breast
HT29 colon = tested on: HT29 colon
IGROV1 ovarian = tested on: IGROV1 ovarian
KM12 colon = tested on: KM12 colon
LOX IMVI melanoma = tested on: LOX IMVI melanoma
M14 melanoma = tested on: M14 melanoma
MALME-3M melanoma = tested on: MALME-3M melanoma
MCF7 breast = tested on: MCF7 breast
MDA-MB-435 melanoma = tested on: MDA-MB-435 melanoma
MDA-MB-468 breast = tested on: MDA-MB-468 breast
MOLT-4 leukemia = tested on: MOLT-4 leukemia
NCI-H226 lung = tested on: NCI-H226 lung
NCI-H23 lung = tested on: NCI-H23 lung
NCI-H322M lung = tested on: NCI-H322M lung
NCI-H460 NSCLC = tested on: NCI-H460 NSCLC
NCI-H522 lung = tested on: NCI-H522 lung
NCI/ADR-RES ovarian = tested on: NCI/ADR-RES ovarian
OVCAR-3 ovarian = tested on: OVCAR-3 ovarian
OVCAR-4 ovarian = tested on: OVCAR-4 ovarian
OVCAR-5 ovarian = tested on: OVCAR-5 ovarian
OVCAR-8 ovarian = tested on: OVCAR-8 ovarian
PC-3 prostate = tested on: PC-3 prostate
RPMI-8226 leukemia = tested on: RPMI-8226 leukemia
RXF 393 renal = tested on: RXF 393 renal
SF-268 CNS = tested on: SF-268 CNS
SF-295 CNS = tested on: SF-295 CNS
SF-539 CNS = tested on: SF-539 CNS
SK-MEL-28 melanoma = tested on: SK-MEL-28 melanoma
SK-MEL-5 melanoma = tested on: SK-MEL-5 melanoma
SK-OV-3 ovarian = tested on: SK-OV-3 ovarian
SN12C renal = tested on: SN12C renal
SNB-19 CNS = tested on: SNB-19 CNS
SNB-75 CNS = tested on: SNB-75 CNS
SR leukemia = tested on: SR leukemia
T-47D breast = tested on: T-47D breast
TK-10 renal = tested on: TK-10 renal
U251 glioblastoma = tested on: U251 glioblastoma
UACC-257 melanoma = tested on: UACC-257 melanoma
UACC-62 melanoma = tested on: UACC-62 melanoma
786-0 renal = tested on: 786-0 renal
CCRF-CEM leukemia = tested on: CCRF-CEM leukemia
K-562 leukemia = tested on: K-562 leukemia
MDA-MB-231 breast = tested on: MDA-MB-231 breast
SK-MEL-2 melanoma = tested on: SK-MEL-2 melanoma
SW-620 colon = tested on: SW-620 colon
UO-31 renal = tested on: UO-31 renal

## CCc1cnn2c(NCc3ccc[n+]([O-])c3)cc(N3CCCC[C@H]3CCO)nc12
A498 renal
  GI50: < 10 nM
  TGI: < 0.01 µM
A549 NSCLC
  GI50: < 10 nM
  TGI: > 100 µM
ACHN renal
  GI50: < 10 nM
  TGI: < 0.01 µM
BT-549 breast
  GI50: < 10 nM
  TGI: < 10 nM
CAKI-1 renal
  GI50: < 10 nM
  TGI: > 100 µM
COLO 205 colon
  GI50: < 10 nM
  TGI: < 0.01 µM
DU-145 prostate
  GI50: < 10 nM
  TGI: < 0.01 µM
EKVX NSCLC
  GI50: < 10 nM
  TGI: < 10 nM
HCC-2998 colon
  GI50: < 10 nM
  TGI: < 0.01 µM
HCT-116 colon
  GI50: < 10 nM
  TGI: > 100 µM
HCT-15 colon
  GI50: < 10 nM
  TGI: 0.0218 µM
HL-60(TB) leukemia
  GI50: < 10 nM
  TGI: < 10 nM
HOP-62 NSCLC
  GI50: < 10 nM
  TGI: < 0.01 µM
HOP-92 NSCLC
  GI50: < 10 nM
  TGI: > 100 µM
HS 578T breast
  GI50: < 10 nM
  TGI: < 10 nM
HT29 colon
  GI50: < 10 nM
  TGI: < 0.01 µM
IGROV1 ovarian
  GI50: < 10 nM
  TGI: < 0.01 µM
KM12 colon
  GI50: < 10 nM
  TGI: > 100 µM
LOX IMVI melanoma
  GI50: < 0.01 µM
  TGI: < 0.01 µM
M14 melanoma
  GI50: < 10 nM
  TGI: < 0.01 µM
MALME-3M melanoma
  GI50: < 10 nM
  TGI: < 0.01 µM
MCF7 breast
  GI50: < 0.01 µM
  TGI: > 100 µM
MDA-MB-435 melanoma
  GI50: < 10 nM
  TGI: < 0.01 µM
MDA-MB-468 breast
  GI50: < 10 nM
  TGI: < 0.01 µM
MOLT-4 leukemia
  GI50: < 10 nM
  TGI: < 10 nM
NCI-H226 lung
  GI50: < 10 nM
  TGI: < 0.01 µM
NCI-H23 lung
  GI50: < 10 nM
  TGI: < 10 nM
NCI-H322M lung
  GI50: < 0.01 µM
  TGI: < 0.01 µM
NCI-H460 NSCLC
  GI50: < 10 nM
  TGI: < 0.01 µM
NCI-H522 lung
  GI50: < 10 nM
  TGI: < 0.01 µM
NCI/ADR-RES ovarian
  GI50: 41.3 nM
  TGI: 250 nM
OVCAR-3 ovarian
  GI50: < 10 nM
  TGI: < 0.01 µM
OVCAR-4 ovarian
  GI50: < 10 nM
  TGI: < 0.01 µM
OVCAR-5 ovarian
  GI50: < 0.01 µM
  TGI: < 0.01 µM
OVCAR-8 ovarian
  GI50: < 10 nM
  TGI: < 0.01 µM
PC-3 prostate
  GI50: < 0.01 µM
  TGI: < 0.01 µM
RPMI-8226 leukemia
  GI50: < 10 nM
  TGI: < 10 nM
RXF 393 renal
  GI50: < 10 nM
  TGI: < 10 nM
SF-268 CNS
  GI50: < 10 nM
  TGI: < 0.01 µM
SF-295 CNS
  GI50: < 0.01 µM
  TGI: > 100 µM
SF-539 CNS
  GI50: < 10 nM
  TGI: < 0.01 µM
SK-MEL-28 melanoma
  GI50: < 10 nM
  TGI: < 0.01 µM
SK-MEL-5 melanoma
  GI50: < 10 nM
  TGI: < 0.01 µM
SK-OV-3 ovarian
  GI50: < 10 nM
  TGI: > 100 µM
SN12C renal
  GI50: < 10 nM
  TGI: < 0.01 µM
SNB-19 CNS
  GI50: < 0.01 µM
  TGI: < 0.01 µM
SNB-75 CNS
  GI50: < 10 nM
  TGI: < 10 nM
SR leukemia
  GI50: < 10 nM
  TGI: < 10 nM
T-47D breast
  GI50: < 10 nM
  TGI: > 100 µM
TK-10 renal
  GI50: < 10 nM
  TGI: < 0.01 µM
U251 glioblastoma
  GI50: < 10 nM
  TGI: < 0.01 µM
UACC-257 melanoma
  GI50: < 10 nM
  TGI: < 0.01 µM
UACC-62 melanoma
  GI50: < 10 nM
  TGI: < 0.01 µM

## C=CC(=O)N1C[C@@H]2CCOc3c(Cl)c(-c4c(O)cccc4F)c(F)c4ncnc(c34)N2C[C@H]1C
786-0 renal
  GI50: 1730 nM
  TGI: 3.91 µM
A498 renal
  GI50: 2270 nM
  TGI: 8.26 µM
A549 NSCLC
  GI50: 2240 nM
  TGI: 6.75 µM
ACHN renal
  GI50: 2580 nM
  TGI: 7.93 µM
BT-549 breast
  GI50: 1260 nM
  TGI: 2970 nM
CAKI-1 renal
  GI50: 1560 nM
  TGI: 6.43 µM
CCRF-CEM leukemia
  GI50: 1600 nM
  TGI: 3.05 µM
COLO 205 colon
  GI50: 2010 nM
  TGI: 4.52 µM
DU-145 prostate
  GI50: 1950 nM
  TGI: 5.12 µM
HCC-2998 colon
  GI50: 1570 nM
  TGI: 3.15 µM
HCT-116 colon
  GI50: 2200 nM
  TGI: 5.95 µM
HCT-15 colon
  GI50: 2630 nM
  TGI: 10.6 µM
HL-60(TB) leukemia
  GI50: 1290 nM
  TGI: 2620 nM
HOP-62 NSCLC
  GI50: 30.9 nM
  TGI: 4.75 µM
HOP-92 NSCLC
  GI50: 2950 nM
  TGI: 9.36 µM
HT29 colon
  GI50: 2540 nM
  TGI: 6.84 µM
IGROV1 ovarian
  GI50: 1700 nM
  TGI: 4.64 µM
K-562 leukemia
  GI50: 1740 nM
  TGI: 3.68 µM
KM12 colon
  GI50: 1880 nM
  TGI: 4.27 µM
LOX IMVI melanoma
  GI50: 4.18 µM
  TGI: 11.4 µM
M14 melanoma
  GI50: 2620 nM
  TGI: 10.1 µM
MALME-3M melanoma
  GI50: 1930 nM
  TGI: 7.88 µM
MCF7 breast
  GI50: 3.1 µM
  TGI: 11.6 µM
MDA-MB-231 breast
  GI50: 2610 nM
  TGI: 8.92 µM
MDA-MB-435 melanoma
  GI50: 1910 nM
  TGI: 3.96 µM
MDA-MB-468 breast
  GI50: 1680 nM
  TGI: 3.62 µM
MOLT-4 leukemia
  GI50: 1160 nM
  TGI: 2400 nM
NCI-H226 lung
  GI50: 2150 nM
  TGI: 5.78 µM
NCI-H23 lung
  TGI: 22.7 nM
NCI-H322M lung
  GI50: 6.66 µM
  TGI: 19.4 µM
NCI-H460 NSCLC
  GI50: 2340 nM
  TGI: 5.34 µM
NCI-H522 lung
  GI50: 1630 nM
  TGI: 3.54 µM
NCI/ADR-RES ovarian
  GI50: 1760 nM
  TGI: 3530 nM
OVCAR-3 ovarian
  GI50: 1550 nM
  TGI: 3.04 µM
OVCAR-4 ovarian
  GI50: 1960 nM
  TGI: 4.75 µM
OVCAR-5 ovarian
  GI50: 4.71 µM
  TGI: 17 µM
OVCAR-8 ovarian
  GI50: 1640 nM
  TGI: 3.06 µM
PC-3 prostate
  GI50: 3.04 µM
  TGI: 10.6 µM
RPMI-8226 leukemia
  GI50: 232 nM
  TGI: 1280 nM
RXF 393 renal
  GI50: 60.1 nM
  TGI: 407 nM
SF-268 CNS
  GI50: 2100 nM
  TGI: 4.86 µM
SF-295 CNS
  GI50: 7.48 µM
  TGI: 20.3 µM
SF-539 CNS
  GI50: 1800 nM
  TGI: 3.45 µM
SK-MEL-2 melanoma
  GI50: 1220 nM
  TGI: 2630 nM
SK-MEL-28 melanoma
  GI50: 2360 nM
  TGI: 8.43 µM
SK-MEL-5 melanoma
  GI50: 1620 nM
  TGI: 3.41 µM
SK-OV-3 ovarian
  GI50: 2190 nM
  TGI: 8.03 µM
SN12C renal
  GI50: 1960 nM
  TGI: 4.23 µM
SNB-19 CNS
  GI50: 3.76 µM
  TGI: 16 µM
SR leukemia
  GI50: 1070 nM
  TGI: 2280 nM
SW-620 colon
  GI50: 2270 nM
  TGI: 4.07 µM
T-47D breast
  GI50: 1890 nM
  TGI: 5.47 µM
TK-10 renal
  GI50: 2400 nM
  TGI: 10.7 µM
U251 glioblastoma
  GI50: 2430 nM
  TGI: 7.66 µM
UACC-257 melanoma
  GI50: 1290 nM
  TGI: 6.42 µM
UACC-62 melanoma
  GI50: 1410 nM
  TGI: 5.5 µM
UO-31 renal
  GI50: 1920 nM
  TGI: 9.16 µM
